ChEMBL document CHEMBL1201862, “PubChem BioAssay data set” (2004)
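Briefly, cells in 96-well plates were exposed to five compound concentrations for 48 h, and endpoints were estimated by linear interpolation. Abbreviation: GI50, concentration required for 50% inhibition of growth.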 Active and inactive are the calls of the source. No stated cut-off is given here; in the data, active = GI50 up to about 1.1 µM and inactive = higher.

Key:
Experiment in all cases: inhibition of tumour cell growth, NCI panel, 48 h
OVCAR-3 = system: OVCAR-3
OVCAR-5 = system: OVCAR-5
MDA-MB-231 = system: MDA-MB-231
DU-145 = system: DU-145
NCI-H226 = system: NCI-H226
Hs-578T = system: Hs-578T
HCC 2998 = system: HCC 2998
COLO 205 = system: COLO 205
KM12 = system: KM12
SF-539 = system: SF-539
SK-MEL-2 = system: SK-MEL-2
CCRF-CEM = system: CCRF-CEM
MDA-MB-435 = system: MDA-MB-435
SK-MEL-5 = system: SK-MEL-5
UACC-257 = system: UACC-257
786-0 = system: 786-0
SNB-75 = system: SNB-75
SK-OV-3 = system: SK-OV-3
NCI/ADR-RES = system: NCI/ADR-RES
OVCAR-8 = system: OVCAR-8

| SMILES | GI50 (OVCAR-3) | GI50 (OVCAR-5) | GI50 (MDA-MB-231) | GI50 (DU-145) | GI50 (NCI-H226) | GI50 (Hs-578T) | GI50 (HCC 2998) | GI50 (COLO 205) | GI50 (KM12) | GI50 (SF-539) | GI50 (SK-MEL-2) | GI50 (CCRF-CEM) | GI50 (MDA-MB-435) | GI50 (SK-MEL-5) | GI50 (UACC-257) | GI50 (786-0) | GI50 (SNB-75) | GI50 (SK-OV-3) | GI50 (NCI/ADR-RES) | GI50 (OVCAR-8) |
| --- | --- | --- | --- | --- | --- | --- | --- | --- | --- | --- | --- | --- | --- | --- | --- | --- | --- | --- | --- | --- |
| CCOC(=O)[C@H](CO)NC1=C(Cl)C(=O)c2c(O)ccc(O)c2C1=O | > 10 µM (inactive) | > 10 µM (inactive) | > 10 µM (inactive) | > 10 µM (inactive) | > 10 µM (inactive) | > 10 µM (inactive) | > 10 µM (inactive) | 3.87 µM (inactive) | > 10 µM (inactive) | > 10 µM (inactive) | > 10 µM (inactive) | > 10 µM (inactive) | > 10 µM (inactive) | > 10 µM (inactive) | > 10 µM (inactive) | > 10 µM (inactive) | > 10 µM (inactive) | > 10 µM (inactive) | > 10 µM (inactive) | > 10 µM (inactive) |
| CCOP(=O)(OCC)C(C(=O)OC)C(=O)C(=O)Nc1cccc(O)c1 (stereo not given) | > 100 µM (inactive) | > 100 µM (inactive) | > 100 µM (inactive) | > 100 µM (inactive) | > 100 µM (inactive) | > 100 µM (inactive) | > 100 µM (inactive) | > 100 µM (inactive) | > 100 µM (inactive) | > 100 µM (inactive) | > 100 µM (inactive) | > 100 µM (inactive) | > 100 µM (inactive) | > 100 µM (inactive) | > 100 µM (inactive) | > 100 µM (inactive) | > 100 µM (inactive) | > 100 µM (inactive) | > 100 µM (inactive) | > 100 µM (inactive) |
| CCN(CC)CCNc1ccc2ncn3c4cc(OC)c(OC)c(O)c4c(=O)c1c23 | 13 µM (inactive) | 21.5 µM (inactive) | 5.93 µM (inactive) | 10.2 µM (inactive) | 12.3 µM (inactive) | 13.2 µM (inactive) | 10.5 µM (inactive) | 1.33 µM (inactive) | 7 µM (inactive) | 9.06 µM (inactive) | 20.4 µM (inactive) | 0.897 µM (active) | 10 µM (inactive) | 15.5 µM (inactive) | 22.9 µM (inactive) | 4.01 µM (inactive) | 2.78 µM (inactive) | 12.5 µM (inactive) | 3.94 µM (inactive) | 5.3 µM (inactive) |
| CC(=O)Nc1cc([As](=O)(O)O)ccc1O [ACETARSONE] | > 100 µM (inactive) | > 100 µM (inactive) | > 100 µM (inactive) | > 100 µM (inactive) | > 100 µM (inactive) | > 100 µM (inactive) | > 100 µM (inactive) | > 100 µM (inactive) | > 100 µM (inactive) | > 100 µM (inactive) | > 100 µM (inactive) | > 100 µM (inactive) | > 100 µM (inactive) | > 100 µM (inactive) | > 100 µM (inactive) | > 100 µM (inactive) | > 100 µM (inactive) | > 100 µM (inactive) | > 100 µM (inactive) | > 100 µM (inactive) |
| CCCCc1ccc(Nc2nc(Cl)c3c(ncn3C3CC(Oc4ccc(C)cc4)C(COc4ccc(C)cc4)O3)n2)cc1 (stereo not given) | > 100 µM (inactive) | > 100 µM (inactive) | > 100 µM (inactive) | > 100 µM (inactive) | > 100 µM (inactive) | 42.5 µM (inactive) | > 100 µM (inactive) | > 100 µM (inactive) | > 100 µM (inactive) | 61 µM (inactive) | > 100 µM (inactive) | > 100 µM (inactive) | > 100 µM (inactive) | > 100 µM (inactive) | > 100 µM (inactive) | > 100 µM (inactive) | 22.8 µM (inactive) | > 100 µM (inactive) | > 100 µM (inactive) | > 100 µM (inactive) |
| CN(C)CCNC(=O)c1cccc2ccc(-c3ccc(O)cc3)nc12 | 3.13 µM (inactive) | 1.71 µM (inactive) | 0.959 µM (active) | 2.33 µM (inactive) | 1.93 µM (inactive) | 2.66 µM (inactive) | 5.86 µM (inactive) | 3.33 µM (inactive) | 4.54 µM (inactive) | 2.75 µM (inactive) | 4.5 µM (inactive) | 1.35 µM (inactive) | 3.74 µM (inactive) | 1.25 µM (inactive) | 2.61 µM (inactive) | 2.63 µM (inactive) | 2.74 µM (inactive) | 3.01 µM (inactive) | 5.11 µM (inactive) | 1.38 µM (inactive) |
| CC(=O)c1c2c(c3ccccc3c1O)O[C@@H]1OCC[C@H]21 | > 100 µM (inactive) | > 100 µM (inactive) | > 100 µM (inactive) | > 100 µM (inactive) | > 100 µM (inactive) | > 100 µM (inactive) | > 100 µM (inactive) | > 100 µM (inactive) | > 100 µM (inactive) | > 100 µM (inactive) | > 100 µM (inactive) | > 100 µM (inactive) | > 100 µM (inactive) | > 100 µM (inactive) | > 100 µM (inactive) | > 100 µM (inactive) | 11.5 µM (inactive) | > 100 µM (inactive) | > 100 µM (inactive) | > 100 µM (inactive) |
| CC1OC(OC2C(O)COC(OC3C(C)OC(OC4C(OC(=O)[C@]56CCC(C)(C)C[C@@H]5C5=CCC7[C@@]8(C)C[C@H](O)[C@H](OC9OC(CO)C(O)C(O)C9O)[C@@](C)(CO)[C@@H]8CC[C@@]7(C)[C@]5(C)CC6)OCC(O)C4O)C(O)C3OC3OCC(O)C(O)C3O)C2O)C(O)C(O)C1O (stereo not given in full) | 17.8 µM (inactive) | 14.4 µM (inactive) | 14.7 µM (inactive) | 18.4 µM (inactive) | 23.1 µM (inactive) | 40.9 µM (inactive) | 16.6 µM (inactive) | 4.46 µM (inactive) | 25.7 µM (inactive) | 18.1 µM (inactive) | 21.4 µM (inactive) | 15.6 µM (inactive) | 21.8 µM (inactive) | 19.5 µM (inactive) | 14.9 µM (inactive) | 15.5 µM (inactive) | 22.6 µM (inactive) | 18.6 µM (inactive) | 26.2 µM (inactive) | 19.5 µM (inactive) |
| COC1(OC)CCCc2c1no[n+]2[O-] | > 100 µM (inactive) | > 100 µM (inactive) | > 100 µM (inactive) | > 100 µM (inactive) | > 100 µM (inactive) | > 100 µM (inactive) | > 100 µM (inactive) | > 100 µM (inactive) | > 100 µM (inactive) | > 100 µM (inactive) | > 100 µM (inactive) | > 100 µM (inactive) | > 100 µM (inactive) | > 100 µM (inactive) | > 100 µM (inactive) | > 100 µM (inactive) | 79.4 µM (inactive) | > 100 µM (inactive) | > 100 µM (inactive) | > 100 µM (inactive) |
| O=C1C=CC(=O)c2c1ccc1c3ccccc3n(CCCCCCCCCCCCn3c4ccccc4c4ccc5c(c43)C(=O)C=CC5=O)c21 | > 100 µM (inactive) | > 100 µM (inactive) | > 100 µM (inactive) | > 100 µM (inactive) | > 100 µM (inactive) | > 100 µM (inactive) | > 46.5 µM (inactive) | > 100 µM (inactive) | > 100 µM (inactive) | > 100 µM (inactive) | > 100 µM (inactive) | 26.3 µM (inactive) | > 100 µM (inactive) | > 100 µM (inactive) | > 100 µM (inactive) | > 65.8 µM (inactive) | > 100 µM (inactive) | > 100 µM (inactive) | > 100 µM (inactive) | > 100 µM (inactive) |
| CN(O)C(=O)Cc1ccc(OCc2cccc(Cl)c2)cc1 | > 100 µM (inactive) | > 100 µM (inactive) | > 100 µM (inactive) | > 100 µM (inactive) | > 100 µM (inactive) | > 100 µM (inactive) | > 100 µM (inactive) | > 100 µM (inactive) | > 100 µM (inactive) | > 100 µM (inactive) | > 100 µM (inactive) | > 100 µM (inactive) | > 100 µM (inactive) | > 100 µM (inactive) | > 100 µM (inactive) | > 100 µM (inactive) | > 100 µM (inactive) | > 100 µM (inactive) | > 100 µM (inactive) | > 100 µM (inactive) |
| FC(F)(F)c1ccc(C2ON=C(c3ccccc3)N2C23CC4CC(CC(C4)C2)C3)cc1 (stereo not given) | > 10 µM (inactive) | > 10 µM (inactive) | > 10 µM (inactive) | > 10 µM (inactive) | > 10 µM (inactive) | > 10 µM (inactive) | > 10 µM (inactive) | > 10 µM (inactive) | > 10 µM (inactive) | > 10 µM (inactive) | > 10 µM (inactive) | > 10 µM (inactive) | > 10 µM (inactive) | > 10 µM (inactive) | > 10 µM (inactive) | > 10 µM (inactive) | > 10 µM (inactive) | > 10 µM (inactive) | > 10 µM (inactive) | > 10 µM (inactive) |
| CCN(CC)CCn1c2ccccc2c(=O)c2c(O)ccc(O)c21 | 31.5 µM (inactive) | 55.7 µM (inactive) | 16.1 µM (inactive) | > 59.4 µM (inactive) | 53.6 µM (inactive) | 22.1 µM (inactive) | > 41.3 µM (inactive) | 20.6 µM (inactive) | 49.2 µM (inactive) | 33.8 µM (inactive) | 33.4 µM (inactive) | 11 µM (inactive) | 18.6 µM (inactive) | 21.3 µM (inactive) | 36.9 µM (inactive) | 34.1 µM (inactive) | 22.3 µM (inactive) | 69.8 µM (inactive) | 19.6 µM (inactive) | 19.6 µM (inactive) |
